Tests used:
HDL cholesterol = test: Cholesterol fed rat, in vivo assay of serum HDL cholesterol; set-up: species or system Male Sprague-Dawley rats; settings: test substance mixed in diet for 8 days, serum HDL cholesterol by FPLC
Protocol: The compounds are tested in vivo in rats fed cholesterol-augmented rodent chow for 8 days according to the test protocol and blood from the rats analyzed for HDL cholesterol.
In Vivo Assa.: Male Sprague-Dawley rats weighing 200-225 g are housed two per cage and fed Purina Rodent Chow Special Mix 5001-S supplemented with 0.25% cholic acid and 1.0% cholesterol and water ad libitum for 8 days. Each test substance is administered to a group of six rats fed the same diet with the test diet mixed in as 0.005-0.1% of the total diet. Body weight and food consumption are recorded prior to diet administration and at termination. Typical doses of the test substances are 5-100 mg/kg/day.
At termination, blood is collected from anesthetized rats and the serum is separated by centrifugation. Total serum cholesterol is assayed using the Sigma Diagnostics enzymatic kit for the determination of cholesterol, Procedure No. 352, modified for use with ninety-six well microtiter plates. After reconstitution with water the reagent contains 300 U/I cholesterol oxidase, 100 U/I horse radish peroxidase, 0.3 mmoles/l of 4-aminoantipyrine and 30.0 mmoles/l of p-hydroxybenzenesulfonate in a pH 6.5 buffer. In the reaction cholesterol is ;oxidized to produce hydrogen peroxide which is used to form a quinoneimine dye. The concentration of dye formed is measured spectrophotometrically by absorbance at 490 nm after incubation at 25° C. for 30 minutes. The concentration of cholesterol was determined for each serum sample relative to a commercial standard from Sigma.
HDL cholesterol concentrations in serum are determined by separation of lipoprotein classes by fast protein liquid chromatography (FPLC) by a modification of the method of Kieft et al., J. Lipid Res., 32 (1991) 859-866. 25 μl of serum is injected onto Superose 12 and Superose 6 (Pharmacia), in series, with a column buffer of 0.05 M Tris (2-amino-2-hydroxymethyl-1,3-propanediol) and 0.15 M sodium chloride at a flow rate of 0.5 ml/min. The eluted sample is mixed on line with Boehringer-Mannheim cholesterol reagent pumped at 0.2 ml/min. The combined eluents are mixed and incubated on line through a knitted coil (Applied Biosciences) maintained at a temperature of 45° C. The eluent is monitored by measuring absorbance at 490 nm and gives a continuous absorbance signal proportional to the cholesterol concentration. The relative concentration of each lipoprotein class is calculated as the per cent of total absorbance. HDL cholesterol concentration, in serum, is calculated as the per cent of total cholesterol as determined by FPLC multiplied by the total serum cholesterol concentration.

Row | Structure (SMILES) | melting point [°C] | % Increase in HDL (Dose) (HDL cholesterol; 100 mg/kg) [%] | % Increase in HDL (Dose) (HDL cholesterol; 50 mg/kg) [%] | % Increase in HDL (Dose) (HDL cholesterol; 82 mg/kg) [%]
1 | CCCCNC(=O)CCC(=NNC(N)=S)c1ccccc1 [Example 1, 2-(4-Butylamino-4-oxo-1-phenyl-butylidene)-hydrazinothiocarboxamide] | 64 to 68 | 56 | – | –
2 | CC(C)NC(=O)CCC(=NNC(N)=S)c1ccccc1 [Example 2, 4-[(Aminothioxomethyl)hydrazono]-N-(1-methylethyl)-4-phenyl-butanamide] | 66 to 71 | 61.7 | – | –
3 | NC(=O)CCC(=NNC(N)=S)c1ccccc1 [Example 3, 4-[(Aminothioxomethyl)-hydrazono]-4-phenylbutanamide] | 186 to 188 | – | 36.4 | –
4 | NC(=S)NN=C(CCC(=O)NCc1ccccc1)c1ccccc1 [Example 4, 4-[(Aminothioxomtethyl)-hydrazono]-N-benzyl-4-phenylbutanamide] | – | – | 49.5 | –
5 | CNC(=O)CCC(=NNC(N)=S)c1ccccc1 [Example 5, 4-[(Aminothioxomrethyl)-hydrazono]-N-methyl-4-phenylbutanamide] | – | 43.3 | – | –

Second part, led by results:

Row | melting point [°C] | Structure (SMILES) | % Increase in HDL (Dose) (HDL cholesterol; 100 mg/kg) [%] | % Increase in HDL (Dose) (HDL cholesterol; 50 mg/kg) [%] | % Increase in HDL (Dose) (HDL cholesterol; 82 mg/kg) [%]
6 | 89 to 92 | NC(=S)NN=C(CCC(=O)NC1CCCCC1)c1ccccc1 [Example 6, 4-[(Aminothioxomethyl)-hydrazono]-N-cyclohexyl-4-phenylbutanamide] | – | – | 28.1
7 | 173 to 175 | CN(C)C(=O)CCC(=NNC(N)=S)c1ccccc1 [Example 7, 4-[(Aminothioxomethyl)hydrazono]-N,N-dimethyl-4-phenylbutanamide] | – | 56.2 | –
8 | 181 to 183 | NC(=S)NN=C(CCC(=O)N1CCCCC1)c1ccccc1 [Example 8, 1-[4-[(Aminothioxomethyl)hydrazono]-1-oxo-4-phenylbutyl]piperidine] | – | 52.8 | –
9 | 58 to 65 | CC(C)CCCC(C)NC(=O)CCC(=NNC(N)=S)c1ccccc1 (stereo not shown) [Example 9, 4-[(Aminothioxomethyl)-hydrazono]-N-(1,5-dimethylhexyl)-4-phenyl-butanamide] | – | 40.4 | –
